Literature values as cited in patent US9199026B2, “Modular extracorporeal systems and methods for treating blood-borne diseases” (SOMERSET GROUP ENTERPRISES, INC., priority 2011, dated 2015).

Key:
pathogen = settings: pH 6.0 compared to pH 7.4
Listeria = settings: carbonation volume about 2, about 35° C., pressure up to about 350 MPa, about 300 seconds
MRSA = settings: raised oxygen levels
S. aureus = settings: basic vs slightly acidic pH
[1] = at acidic pH

N#Cc1c(N2C[C@@H]3NCCO[C@H]3C2)c(F)cc2c(=O)c(C(=O)O)cn(C3CC3)c12 [Finafloxacin, finafloxacin]
increase in activity (lowering of the MIC) (pathogen): 4- to 8 fold

O=C=O [CO2, Carbon dioxide]
effect on inactivation of Listeria (Listeria): enhanced the inactivation of Listeria

CN[C@H](CC(C)C)C(=O)N[C@H]1C(=O)N[C@@H](CC(N)=O)C(=O)N[C@H]2C(=O)N[C@H]3C(=O)N[C@H](C(=O)N[C@H](C(=O)O)c4cc(O)cc(O)c4-c4cc3ccc4O)[C@H](O)c3ccc(c(Cl)c3)Oc3cc2cc(c3O[C@@H]2O[C@H](CO)[C@@H](O)[C@H](O)[C@H]2O[C@H]2C[C@](C)(N)[C@H](O)[C@H](C)O2)Oc2ccc(cc2Cl)[C@H]1O [vancomycin]
effect of raising oxygen levels on resistance of MRSA (MRSA): decreases the resistance of MRSA to vancomycin
killing S. aureus, basic versus slightly acidic conditions (S. aureus): killing S. aureus under basic conditions better than under slightly acidic conditions

Nc1nc(-n2cc(C(=O)O)c(=O)c3cc(F)c(N4CC(O)C4)c(Cl)c32)c(F)cc1F [delafloxacin]
fraction under a neutral form [1]: 50%
